PubChem BioAssay (NCI)
Several values for one entry are separate records, joined by “and”; a condition that tells them apart may be missing. Equal values may be shown once.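 Growth conditions: 96-well plates. Treatment: test compound, 48 hours, 5 concentrations. Analysis: linear interpolation between bracketing concentrations; unreached endpoints set to highest concentration. The concentration for 50% growth inhibition is given as GI50. The concentration for full growth arrest is given as TGI.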

System: MDA-MB-468 breast
Assay: inhibition of tumour cell growth, NCI panel, 48 h

Going from `COc1ccccc1NS(=O)(=O)c1ccc2oc(SC(C)C)nc2c1` to `CCS(=O)(=O)c1ccc(OC)c(Nc2ncc(-c3ccccc3Cl)o2)c1`, the GI50 rises from 2380 nM to 6530 nM (2.7-fold).

First: COc1cc(/C=C/c2cc(/C=C/c3ccc(O)c(OC)c3)n(C(=O)Nc3ccc(Cl)cc3)n2)ccc1O
Second: COc1ccc(/C=C\c2cc(OC)c(OC)c(OC)c2)cc1OCC(=O)Nc1ccc2nc(C)sc2c1
The GI50 of the first is 7.7-fold lower: 310 nM for the first, 2390 nM for the second.

Compared with `Cc1c(C(N)=O)sc2c1c(=O)n(Cc1ccccc1)c1nnc(-c3ccc(Br)cc3)n21`, `CCOC(=O)c1cnn2c3ccccc3n(S(=O)(=O)c3ccc(OC)cc3)c12` is 6.3-fold lower in GI50: 2040 nM for the first, 324 nM for the second.

`O=C(C[P+](c1ccccc1)(c1ccccc1)c1ccccc1)C[P+](c1ccccc1)(c1ccccc1)c1ccccc1` and `Cc1ccc(-c2nc([P+](c3ccccc3)(c3ccccc3)c3ccccc3)c(Nc3ccccc3)o2)cc1` are within 1.5-fold of each other in GI50: 165 nM for the first, 232 nM for the second.

Going from `O=C(Nc1ccccc1O)c1ccc(NS(=O)(=O)c2cccc3cccnc23)cc1` to `O=C(NCCNc1nccc(-c2c(-c3cccc(O)c3)nc3sccn23)n1)c1ccccc1`, the GI50 rises from 679 nM to 3600 nM (5.3-fold).

`Cn1cc(-c2nn3cc(-c4ccncc4)nc3s2)c2cc(Cl)ccc21` and `Cc1ccc(-c2nc(-c3cn(C)c4ncccc34)cs2)cc1` are within 1.5-fold of each other in GI50: 2190 nM for the first, 2660 nM for the second.

Going from `CCCCCCCC(=O)OCC(=O)[C@]1(O)Cc2c(O)c3c(c(O)c2[C@@H](OC2CC(N)C(O)C(C)O2)C1)C(=O)c1c(OC)cccc1C3=O` (some centres undefined) to `COc1cc(C2C3=C(COC3=O)N(CCO)c3cc4c(cc32)OCO4)cc(OC)c1O` (centres undefined), the GI50 rises from 39.8 nM to 819 nM (21-fold).

Going from `O=C(/C=C/C12c3ccccc3C(c3ccccc31)C1C(=O)NC(=O)C12)c1ccc(Cl)cc1` (centres undefined) to `CC(=O)c1cc(C(=O)c2ccc3c(c2)Sc2ccccc2N3)c2c(C)cccn12`, the GI50 falls from 1700 nM to 175 nM (9.7-fold).

`O=C(CC(=O)c1cccc(Cl)c1)c1cccc(Cl)c1` and `Cc1cc(Cl)ccc1Nc1nc(C(F)(F)F)ccc1C(=O)N/N=C/c1ccccc1Cl` are within 1.5-fold of each other in GI50: 1770 nM for the first, 1880 nM for the second.

Going from `COc1ccc(C2C=C(c3ccc(Cl)cc3)N=C3SC=C(C)N32)c(Br)c1` (centres undefined) to `O=S(=O)(Nc1ccc(F)c(Cl)c1)c1ccc(-c2cnc(C3CC3)o2)cc1`, the GI50 falls from 1910 nM to 98.2 nM (19-fold).

First: C[C@@H]1COCCN1c1cc(C2([S@@](C)(=N)=O)CC2)nc(-c2ccnc3[nH]ccc23)n1
Second: Cc1cc(Nc2cc(N3CCN(C)CC3)nc(Sc3ccc(NC(=O)C4CC4)cc3)n2)n[nH]1
The GI50 of the first is 11-fold higher: 2730 nM for the first, 240 nM for the second.

Compared with `Nc1nc(N)c2cc(Sc3cccc(C(F)(F)F)c3)ccc2n1`, `CN1CCN(Cc2ccc3c(NNC(=O)c4ccccc4)nc4cc(F)ccc4n23)CC1` is 4.3-fold lower in GI50: 1020 nM for the first, 237 nM for the second.

`COc1cccc(C2C3=C(COC3=O)N(CCO)c3cc4c(cc32)OCO4)c1` (centres undefined) and `COc1cc2c(=O)n(CCN(C)C)c3c4cc5c(cc4ccc3c2cc1OC)OCO5` are within 1.5-fold of each other in GI50: 131 nM for the first, 115 nM for the second.

First: NC(=S)N=Nc1c(O)c2ccccc2c2ccccc12
Second: c1ccc([As]=[As]c2ccccc2)cc1 (centres undefined)
The GI50 of the first is 82-fold higher: 44300 nM for the first, 541 nM for the second.

First: Cc1cnc(Nc2ccc(N3CCN(C)CC3)cc2)nc1Nc1ccc(Cl)c(NS(=O)(=O)C(C)(C)C)c1
Second: C#COc1cccc(Nc2ncnc3cc(NC(=O)[C@H](C)Cl)ccc23)c1
The GI50 of the first is 76-fold lower: 153 nM for the first, 11700 nM for the second.

Going from `COc1cccc(/C(C)=N/NC(=O)CSc2nc3ccccc3c(=O)n2CCc2ccc(S(N)(=O)=O)cc2)c1` to `COc1ccc(Cn2cc3c(c2-c2ccccc2)CCc2cnoc2-3)cc1N`, the GI50 falls from 3160 nM to 39 nM (81-fold).

Going from `ClCc1cccc(CSc2ncnc3c2ncn3Cc2cccc(CCl)c2)c1` to `CCOC(=O)/C=C/C(=O)[C@H](CC(C)C)NC(=O)[C@H](Cc1ccccc1)NC(=O)OCc1ccccc1`, the GI50 rises from 1300 nM to 2360 nM (1.8-fold).

Compared with `COc1cc(NCCN=C(N)NC(N)=NC(C)C)c2ncccc2c1`, `N#CN1CC[C@H](C(=O)Nc2cc3cc(C(N)=O)ccc3cn2)C1` is lower in GI50: 162 nM for the first, < 14.6 nM for the second.

First: Nc1nc(=O)n([C@@H]2CS[C@H](CO)O2)cc1F
Second: CNS(=O)(=O)OCC1OC(n2cnc3c(N)ncnc32)C(O)C1O (centres undefined)
The GI50 of the first is higher: > 100000 nM for the first, 28900 nM for the second.

First: C=C1C(=O)O[C@H]2[C@H]1CC/C(COC(=O)NCCc1c[nH]c3ccc(Cl)cc13)=C\CC[C@@]1(C)O[C@@H]21
Second: CCOC(=O)c1c(NCC(=O)Nc2cccc([N+](=O)[O-])c2)sc2c1CCCC2
The GI50 of the first is 5-fold higher: 1650 nM for the first, 333 nM for the second.

First: CCOC(=O)c1ccc2c(c1)[n+](=O)c(C(C)=O)c(C(F)(F)F)n2[O-]
Second: O=C(Nc1cc(Oc2cc(F)c(NC(=O)C3(C(=O)Nc4ccc(F)cc4)CC3)cc2F)ccn1)C1CC1
The GI50 of the first is 2-fold lower: 1590 nM for the first, 3170 nM for the second.

Going from `Cc1ccc(NCCN(C)C)c2c(=O)c3ccccc3sc12` to `NC(=Nc1ccc(N)cc1)C(N)=Nc1ccc(N)cc1`, the GI50 rises from 1670 nM to > 100000 nM.

`COc1ccccc1NS(=O)(=O)c1ccc2oc(SC(C)C)nc2c1` and `CCS(=O)(=O)c1ccc(OC)c(Nc2ncc(-c3ccccc3Cl)o2)c1` are within 1.5-fold of each other in TGI: 17600 nM for the first, 19600 nM for the second.

Going from `COc1cc(/C=C/c2cc(/C=C/c3ccc(O)c(OC)c3)n(C(=O)Nc3ccc(Cl)cc3)n2)ccc1O` to `COc1ccc(/C=C\c2cc(OC)c(OC)c(OC)c2)cc1OCC(=O)Nc1ccc2nc(C)sc2c1`, the TGI rises from 1820 nM to 14000 nM (7.7-fold).

Going from `Cc1c(C(N)=O)sc2c1c(=O)n(Cc1ccccc1)c1nnc(-c3ccc(Br)cc3)n21` to `CCOC(=O)c1cnn2c3ccccc3n(S(=O)(=O)c3ccc(OC)cc3)c12`, the TGI rises from 6940 nM to > 100000 nM.

`O=C(C[P+](c1ccccc1)(c1ccccc1)c1ccccc1)C[P+](c1ccccc1)(c1ccccc1)c1ccccc1` and `Cc1ccc(-c2nc([P+](c3ccccc3)(c3ccccc3)c3ccccc3)c(Nc3ccccc3)o2)cc1` are within 1.5-fold of each other in TGI: 508 nM for the first, 719 nM for the second.

Going from `O=C(Nc1ccccc1O)c1ccc(NS(=O)(=O)c2cccc3cccnc23)cc1` to `O=C(NCCNc1nccc(-c2c(-c3cccc(O)c3)nc3sccn23)n1)c1ccccc1`, the TGI rises from 3750 nM to 28700 nM (7.7-fold).

`Cn1cc(-c2nn3cc(-c4ccncc4)nc3s2)c2cc(Cl)ccc21` and `Cc1ccc(-c2nc(-c3cn(C)c4ncccc34)cs2)cc1` are within 1.5-fold of each other in TGI: 7840 nM for the first, 9920 nM for the second.

Compared with `CCCCCCCC(=O)OCC(=O)[C@]1(O)Cc2c(O)c3c(c(O)c2[C@@H](OC2CC(N)C(O)C(C)O2)C1)C(=O)c1c(OC)cccc1C3=O` (some centres undefined), `COc1cc(C2C3=C(COC3=O)N(CCO)c3cc4c(cc32)OCO4)cc(OC)c1O` (centres undefined) is 8.7-fold higher in TGI: 301 nM for the first, 2620 nM for the second.

First: O=C(/C=C/C12c3ccccc3C(c3ccccc31)C1C(=O)NC(=O)C12)c1ccc(Cl)cc1 (centres undefined)
Second: CC(=O)c1cc(C(=O)c2ccc3c(c2)Sc2ccccc2N3)c2c(C)cccn12
The TGI of the first is lower: 3470 nM for the first, > 96000 nM for the second.

Compared with `O=C(CC(=O)c1cccc(Cl)c1)c1cccc(Cl)c1`, `Cc1cc(Cl)ccc1Nc1nc(C(F)(F)F)ccc1C(=O)N/N=C/c1ccccc1Cl` is higher in TGI: 8760 nM for the first, > 100000 nM for the second.

Compared with `COc1ccc(C2C=C(c3ccc(Cl)cc3)N=C3SC=C(C)N32)c(Br)c1` (centres undefined), `O=S(=O)(Nc1ccc(F)c(Cl)c1)c1ccc(-c2cnc(C3CC3)o2)cc1` is 3.8-fold lower in TGI: 6130 nM for the first, 1630 nM for the second.

`C[C@@H]1COCCN1c1cc(C2([S@@](C)(=N)=O)CC2)nc(-c2ccnc3[nH]ccc23)n1` and `Cc1cc(Nc2cc(N3CCN(C)CC3)nc(Sc3ccc(NC(=O)C4CC4)cc3)n2)n[nH]1` cannot be ordered by TGI: 25600 nM for the first, > 10000 nM for the second.

Compared with `Nc1nc(N)c2cc(Sc3cccc(C(F)(F)F)c3)ccc2n1`, `CN1CCN(Cc2ccc3c(NNC(=O)c4ccccc4)nc4cc(F)ccc4n23)CC1` is 1.5-fold lower in TGI: 2550 nM for the first, 1650 nM for the second.

Going from `NC(=S)N=Nc1c(O)c2ccccc2c2ccccc12` to `c1ccc([As]=[As]c2ccccc2)cc1` (centres undefined), the TGI falls from > 100000 nM to 2310 nM.

Compared with `Cc1cnc(Nc2ccc(N3CCN(C)CC3)cc2)nc1Nc1ccc(Cl)c(NS(=O)(=O)C(C)(C)C)c1`, `C#COc1cccc(Nc2ncnc3cc(NC(=O)[C@H](C)Cl)ccc23)c1` is 28-fold higher in TGI: 2200 nM for the first, 61000 nM for the second.

First: COc1cccc(/C(C)=N/NC(=O)CSc2nc3ccccc3c(=O)n2CCc2ccc(S(N)(=O)=O)cc2)c1
Second: COc1ccc(Cn2cc3c(c2-c2ccccc2)CCc2cnoc2-3)cc1N
The TGI of the first is 23-fold higher: 8760 nM for the first, 385 nM for the second.

Compared with `ClCc1cccc(CSc2ncnc3c2ncn3Cc2cccc(CCl)c2)c1`, `CCOC(=O)/C=C/C(=O)[C@H](CC(C)C)NC(=O)[C@H](Cc1ccccc1)NC(=O)OCc1ccccc1` is 1.8-fold higher in TGI: 2850 nM for the first, 5070 nM for the second.

First: COc1cc(NCCN=C(N)NC(N)=NC(C)C)c2ncccc2c1
Second: N#CN1CC[C@H](C(=O)Nc2cc3cc(C(N)=O)ccc3cn2)C1
The TGI of the first is 21-fold higher: 603 nM for the first, 28.9 nM for the second.

First: COc1cc2c(=O)n(CCN(C)C)c3c4cc5c(cc4ccc3c2cc1OC)OCO5
Second: Cc1ccc(NCCN(C)C)c2c(=O)c3ccccc3sc12
The TGI of the first is 11-fold lower: 303 nM for the first, 3260 nM for the second.

`Nc1nc(=O)n([C@@H]2CS[C@H](CO)O2)cc1F` and `CNS(=O)(=O)OCC1OC(n2cnc3c(N)ncnc32)C(O)C1O` (centres undefined) cannot be ordered by TGI: > 100000 nM for the first, > 100000 nM for the second.

First: C=C1C(=O)O[C@H]2[C@H]1CC/C(COC(=O)NCCc1c[nH]c3ccc(Cl)cc13)=C\CC[C@@]1(C)O[C@@H]21
Second: CCOC(=O)c1c(NCC(=O)Nc2cccc([N+](=O)[O-])c2)sc2c1CCCC2
The TGI of the first is 2.3-fold higher: 3310 nM for the first, 1430 nM for the second.

Going from `CCOC(=O)c1ccc2c(c1)[n+](=O)c(C(C)=O)c(C(F)(F)F)n2[O-]` to `O=C(Nc1cc(Oc2cc(F)c(NC(=O)C3(C(=O)Nc4ccc(F)cc4)CC3)cc2F)ccn1)C1CC1`, the TGI rises from 3290 nM to 6140 nM (1.9-fold).

`NC(=Nc1ccc(N)cc1)C(N)=Nc1ccc(N)cc1` was tested, and the TGI was > 100000 nM.

`CN1CCN(CCOc2cc(OC3CCOCC3)c3c(Nc4c(Cl)ccc5c4OCO5)ncnc3c2)CC1` was tested, and the GI50 was 773 nM and 548 nM.

`CN1CCN(CCOc2cc(OC3CCOCC3)c3c(Nc4c(Cl)ccc5c4OCO5)ncnc3c2)CC1` was tested, and the TGI was 3490 nM and 7540 nM.
